PubChem BioAssay (NCI)
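Exposure lasted 48 hours, with cells grown in 96-well plates and compounds tested at five concentrations. TGI: concentration producing complete growth inhibition.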

Experiments:
Experiment in all cases: growth of human tumour cells (NCI), 48 h
UACC-257 melanoma = tested on: UACC-257 melanoma
UO-31 renal = tested on: UO-31 renal
SK-MEL-28 melanoma = tested on: SK-MEL-28 melanoma
SK-MEL-2 melanoma = tested on: SK-MEL-2 melanoma
SNB-19 CNS = tested on: SNB-19 CNS
HCC-2998 colon = tested on: HCC-2998 colon
HOP-92 NSCLC = tested on: HOP-92 NSCLC
MDA-N = tested on: MDA-N
IGROV1 ovarian = tested on: IGROV1 ovarian
HT29 colon = tested on: HT29 colon
EKVX NSCLC = tested on: EKVX NSCLC
HCT-116 colon = tested on: HCT-116 colon
OVCAR-8 ovarian = tested on: OVCAR-8 ovarian
K-562 leukemia = tested on: K-562 leukemia
HOP-62 NSCLC = tested on: HOP-62 NSCLC
SF-268 CNS = tested on: SF-268 CNS
TK-10 renal = tested on: TK-10 renal
SNB-75 CNS = tested on: SNB-75 CNS
SN12C renal = tested on: SN12C renal
ACHN renal = tested on: ACHN renal
NCI-H226 lung = tested on: NCI-H226 lung
786-0 renal = tested on: 786-0 renal
HCT-15 colon = tested on: HCT-15 colon
BT-549 breast = tested on: BT-549 breast
MOLT-4 leukemia = tested on: MOLT-4 leukemia
SF-295 CNS = tested on: SF-295 CNS
OVCAR-3 ovarian = tested on: OVCAR-3 ovarian
HS 578T breast = tested on: HS 578T breast
HL-60(TB) leukemia = tested on: HL-60(TB) leukemia
SK-MEL-5 melanoma = tested on: SK-MEL-5 melanoma
COLO 205 colon = tested on: COLO 205 colon
M14 melanoma = tested on: M14 melanoma
U251 CNS = tested on: U251 CNS
MDA-MB-435 = tested on: MDA-MB-435
SR leukemia = tested on: SR leukemia
A549 NSCLC = tested on: A549 NSCLC
SF-539 CNS = tested on: SF-539 CNS
SW-620 colon = tested on: SW-620 colon
RPMI-8226 leukemia = tested on: RPMI-8226 leukemia
MDA-MB-231 breast = tested on: MDA-MB-231 breast
PC-3 prostate = tested on: PC-3 prostate
NCI-H522 lung = tested on: NCI-H522 lung
LOX IMVI melanoma = tested on: LOX IMVI melanoma
MCF7 breast = tested on: MCF7 breast
CAKI-1 renal = tested on: CAKI-1 renal
NCI-H23 lung = tested on: NCI-H23 lung
RXF 393 renal = tested on: RXF 393 renal
OVCAR-4 ovarian = tested on: OVCAR-4 ovarian
CCRF-CEM leukemia = tested on: CCRF-CEM leukemia
DU-145 prostate = tested on: DU-145 prostate
OVCAR-5 ovarian = tested on: OVCAR-5 ovarian
KM12 colon = tested on: KM12 colon
MALME-3M melanoma = tested on: MALME-3M melanoma
NCI/ADR-RES ovarian = tested on: NCI/ADR-RES ovarian
SK-OV-3 ovarian = tested on: SK-OV-3 ovarian
NCI-H460 lung = tested on: NCI-H460 lung
A498 renal = tested on: A498 renal
T-47D breast = tested on: T-47D breast
UACC-62 melanoma = tested on: UACC-62 melanoma

CC(=O)OCCOCn1c2c(c(=S)[nH]c1=O)CCC2
TGI (UACC-257 melanoma): > 100 µM
TGI (UO-31 renal): > 100 µM
TGI (SK-MEL-28 melanoma): > 100 µM
TGI (SK-MEL-2 melanoma): > 100 µM
TGI (SNB-19 CNS): > 100 µM
TGI (HCC-2998 colon): > 100 µM
TGI (HOP-92 NSCLC): > 100 µM
TGI (MDA-N): > 100 µM
TGI (IGROV1 ovarian): > 100 µM
TGI (HT29 colon): > 100 µM
TGI (EKVX NSCLC): > 100 µM
TGI (HCT-116 colon): > 100 µM
TGI (OVCAR-8 ovarian): > 100 µM
TGI (K-562 leukemia): > 100 µM
TGI (HOP-62 NSCLC): > 100 µM
TGI (SF-268 CNS): > 100 µM
TGI (TK-10 renal): > 100 µM
TGI (SNB-75 CNS): > 100 µM
TGI (SN12C renal): > 100 µM
TGI (ACHN renal): > 100 µM
TGI (NCI-H226 lung): > 100 µM
TGI (786-0 renal): > 100 µM
TGI (HCT-15 colon): > 100 µM
TGI (BT-549 breast): > 100 µM
TGI (MOLT-4 leukemia): > 100 µM
TGI (SF-295 CNS): > 100 µM
TGI (OVCAR-3 ovarian): > 100 µM
TGI (HS 578T breast): > 100 µM
TGI (HL-60(TB) leukemia): > 100 µM
TGI (SK-MEL-5 melanoma): > 100 µM
TGI (COLO 205 colon): > 100 µM
TGI (M14 melanoma): > 100 µM
TGI (U251 CNS): > 100 µM
TGI (MDA-MB-435): > 100 µM
TGI (SR leukemia): > 100 µM
TGI (A549 NSCLC): > 100 µM
TGI (SF-539 CNS): > 100 µM
TGI (SW-620 colon): > 100 µM
TGI (RPMI-8226 leukemia): > 100 µM
TGI (MDA-MB-231 breast): > 100 µM
TGI (PC-3 prostate): > 100 µM
TGI (NCI-H522 lung): > 100 µM
TGI (LOX IMVI melanoma): > 100 µM
TGI (MCF7 breast): > 100 µM
TGI (CAKI-1 renal): > 100 µM
TGI (NCI-H23 lung): > 100 µM
TGI (RXF 393 renal): > 100 µM
TGI (OVCAR-4 ovarian): > 100 µM
TGI (CCRF-CEM leukemia): > 100 µM
TGI (DU-145 prostate): > 100 µM
TGI (OVCAR-5 ovarian): > 100 µM
TGI (KM12 colon): > 100 µM
TGI (MALME-3M melanoma): > 100 µM

O=C(/C=C/c1ccc(O)c(O)c1)OCCCc1ccccc1
TGI (UACC-257 melanoma): 63.4 µM
TGI (UO-31 renal): 14.8 µM
TGI (SK-MEL-28 melanoma): 31.2 µM
TGI (SK-MEL-2 melanoma): 46.4 µM
TGI (SNB-19 CNS): 33.6 µM
TGI (HCC-2998 colon): 39.5 µM
TGI (HOP-92 NSCLC): 30.6 µM
TGI (MDA-N): 31.3 µM
TGI (IGROV1 ovarian): 12.1 µM
TGI (HT29 colon): 48.4 µM
TGI (EKVX NSCLC): 63.8 µM
TGI (HCT-116 colon): 22.4 µM
TGI (K-562 leukemia): 58.9 µM
TGI (HOP-62 NSCLC): 26.6 µM
TGI (SF-268 CNS): 24 µM
TGI (SN12C renal): 25.3 µM
TGI (ACHN renal): 21.2 µM
TGI (NCI-H226 lung): 34.6 µM
TGI (786-0 renal): 18.1 µM
TGI (HCT-15 colon): 26.4 µM
TGI (MOLT-4 leukemia): 36.4 µM
TGI (NCI/ADR-RES ovarian): 28.6 µM
TGI (SF-295 CNS): 38.9 µM
TGI (OVCAR-3 ovarian): 6.6 µM
TGI (HS 578T breast): 74.5 µM
TGI (HL-60(TB) leukemia): 4.84 µM
TGI (SK-MEL-5 melanoma): 26.3 µM
TGI (COLO 205 colon): 27.1 µM
TGI (M14 melanoma): 22.6 µM
TGI (U251 CNS): 23.4 µM
TGI (MDA-MB-435): 24.6 µM
TGI (SR leukemia): 22.8 µM
TGI (A549 NSCLC): 31.3 µM
TGI (SK-OV-3 ovarian): 58.9 µM
TGI (NCI-H460 lung): 55.6 µM
TGI (SF-539 CNS): 5.81 µM
TGI (SW-620 colon): 32 µM
TGI (A498 renal): 30.4 µM
TGI (T-47D breast): 45.9 µM
TGI (RPMI-8226 leukemia): 49.4 µM
TGI (MDA-MB-231 breast): 25.2 µM
TGI (PC-3 prostate): 24.4 µM
TGI (NCI-H522 lung): 5.59 µM
TGI (LOX IMVI melanoma): 27.1 µM
TGI (UACC-62 melanoma): 23.6 µM
TGI (MCF7 breast): 26.8 µM
TGI (CAKI-1 renal): 47 µM
TGI (NCI-H23 lung): 35.3 µM
TGI (RXF 393 renal): 25.5 µM
TGI (OVCAR-4 ovarian): 20.7 µM
TGI (DU-145 prostate): 31.6 µM
TGI (OVCAR-5 ovarian): 37.3 µM
TGI (MALME-3M melanoma): 25.4 µM
